Assay results published in patent publication US4782064A, “2-heteroaryl-alkyl-1H-benz[de]-isoquinoline-1,3(2H)-diones” (American Cyanamid Co., priority 1986, dated 1988).
Counter-ions that a name gives are not always drawn.

Legend:
thromboxane synthetase = biological target: T1, thromboxane synthetase (Rattus norvegicus, UniProt P49430); experiment: inhibition of thromboxane (TX) formation in platelets (TXB2 by radioimmunoassay); type: cell-based, Okamoto-Aoki spontaneously hypertensive rats (SHR); conditions: drug at 10^-4 M, 10 minutes at 37° C., washed SHR platelets, TXB2 RIA
T1 construct: The platelets were isolated by centrifuging the PRP for 10 minutes; endogenous in cells; host or cells: washed platelets from arterial blood of Okamoto-Aoki spontaneously hypertensive rats (Taconic Farms, Germantown, N.Y.)
T1 sequence (P49430 1-533): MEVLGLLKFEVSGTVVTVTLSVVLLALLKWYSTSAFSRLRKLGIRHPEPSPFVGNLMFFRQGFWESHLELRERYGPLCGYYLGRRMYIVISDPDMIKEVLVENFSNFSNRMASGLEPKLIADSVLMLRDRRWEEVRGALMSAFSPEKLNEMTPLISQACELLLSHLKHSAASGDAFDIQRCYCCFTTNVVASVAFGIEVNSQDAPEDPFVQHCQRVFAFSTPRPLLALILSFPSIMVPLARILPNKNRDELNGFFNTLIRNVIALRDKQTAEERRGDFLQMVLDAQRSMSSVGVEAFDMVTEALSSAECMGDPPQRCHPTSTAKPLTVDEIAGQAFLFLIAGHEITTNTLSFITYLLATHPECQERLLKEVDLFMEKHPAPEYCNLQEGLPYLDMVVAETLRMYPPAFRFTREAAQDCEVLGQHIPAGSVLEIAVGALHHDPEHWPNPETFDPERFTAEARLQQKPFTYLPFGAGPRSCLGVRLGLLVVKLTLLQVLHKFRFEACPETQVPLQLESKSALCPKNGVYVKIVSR
Description: From Okamoto-Aoki spontaneously hypertensive rats (SHR) (Taconic Farms, Germantown, N.Y.) between 19 and 24 weeks in age, under urethan anesthesia, […] of arterial blood was collected in one ml of 3.2% sodium citrate a polystyrene tube. The blood was diluted with 3 ml cold saline and centrifuged at room temperature for 15 minutes at 460×g. The platelet rich plasma (PRP) was separated. The platelets were isolated by centrifuging the PRP for 10 minutes at 1060×g nd were washed in 4 ml cold oxygenated Krebs phosphate buffer, pH 7.4. The chilled platelets recovered from centrifuging at 800×g for 10 minutes were resuspended in oxygenated Krebs phosphate buffer and diluted to contain 4.5-6.0×10^4 platelets/μl. The inhibition of thromboxane (TX) formation was studied by determining the concentration of thromboxane B2 (TXB2), the stable hydrolysis product of TXA2. Assay samples, prepared on ice, contained 200 μl platelet suspension, 50 μl saline, and 50 μl vehicle or drug under study at a concentration of 10^-4 M (with OKY-1581, UK-3724801, 1-benzylimidazole, and/or indometha standards). The samples were incubated for 10 minutes at 37° C. in a metabolic shaker. The reaction was terminated by immersing the tubes in an ice bath and adding 50 μl of 0.5M citric acid. The samples were centrifuged for 10 minutes in a refrigerated centrifuge and the supernatants thus obtained were decanted and stored at -20° C. The TXB2 content for each sample was determined by a direct radioimmunoassay (RIA) utilizing a TXB2 specific RIA kit purchased from New England Nuclear, Boston, Mass. and results expressed as pg TXB2 formed minute^-1 sample^-1, from which the percent inhibition of TXB2 formation was calculated.

[1] = system: spontaneously hypertensive rats; experiment: hypotensive activity in spontaneously hypertensive rats (mean arterial blood pressure); type: in vivo, spontaneously hypertensive rats of the Okamoto strain; conditions: by gavage, 100 mg/kg or less, two doses 24 hours apart, measured 28 hours after the initial dose; starting average MABP 160±1.5 mm; number of rats in parentheses
Description: The novel compounds of the present invention are also active hypotensive agents and were tested for hypotensive activity by the method of P. S. Chan and D. Poorvin, Clinical and Experimental Hypertension, 1 (6), 817-830 (1979). Male, 16 week old, spontaneously hypertensive rats of the Okamoto strain, from Taconic Farms, Germantown, N.Y. having an average mean arterial blood pressure of 160±1.5 mm of mercury were used in the test. One to 3 rats were used per test compound. The rats were dosed by gavage with a test compound, suspended in 2% pre-boiled starch at a concentration of 50 mg/ml, at a dose of 100 mg/kg of body weight or less, with 0.9% sodium chloride loading at a dose of 25 ml/kg of body weight. A second identical dose of the test compound, without sodium chloride loading was given 24 hours later. At 28 hours after the initial dose, the mean arterial blood pressure (MABP) was measured by the method of Chan and Poorvir vide supra. The procedure was repeated in a second and third rat when necessary as specified in the referenced method.

[2] = system: coronary arteries of guinea pigs and rabbits; conditions: cited from earlier work
ischemic myocardium = conditions: canines; cited from earlier work

Structure (SMILES) | inhibition at 100 µM (thromboxane synthetase) [%] | MABP/mm Hg (no. of rats) [1] [mm Hg] | other results
O=C1c2cccc3cccc(c23)C(=O)N1CCCCc1cccnc1 [2-[4-(3-pyridinyl)butyl]-1 --H--benz[de]isoquinoline-1,3(2 --H)--dione] | 98 | 137 | –
O=C1c2cccc3cccc(c23)C(=O)N1CCCCn1ccnc1 [2-[4-(1H-Imidazol-1-yl)butyl]-1H-benz-[de]isoquinoline-1,3(2H)-dione] | 96 | 106 | –
CC(CCN1C(=O)c2cccc3cccc(c23)C1=O)n1ccnc1 (stereo not shown) [2-[3-(1 --H--imidazol-1-yl)butyl]-1 --H--benz[de]isoquinoline-1,3(2 --H)--dione] | 97 | 120 | –
O=C1c2cccc3cccc(c23)C(=O)N1CCCCCn1ccnc1 [2-[5-(1 --H--imidazol-1-yl)pentyl)-1 --H--benz[de]isoquinoline-1,3(2 --H)--dione] | 100 | – | –
O=C1c2cccc3cccc(c23)C(=O)N1CCCn1ccnc1 [2-[3(1 --H--imidazol-1-yl)propyl]-1 --H--benz[de]isoquinoline-1,3(2 --H)--dione] | 89 | 103 | –
O=C1c2cccc3cccc(c23)C(=O)N1CCCn1cncn1 [2-[3-(1 --H--1,2,4-triazol-1-yl)-propyl]-1 --H--benz[de]isoquinoline-1,3(2 --H)--dione] | 96 | – | –
O=C1c2cccc3c(Cl)ccc(c23)C(=O)N1CCCCn1ccnc1 [6-Chloro-2-[4-(1H-imidazol-1-yl)butyl]-1H-benz[de]isoquinoline-1,3(2H)-dione monohydrochloride] | 96 | – | –
O=C1c2cccc3cccc(c23)C(=O)N1CCCCCCCCn1ccnc1 [2-[8-(1H-Imidazol-1-yl)octyl]-1H-benz[de]isoquinoline-1,3(2H)-dione] | 98 | – | –
O=C1c2cccc3c(Cl)ccc(c23)C(=O)N1CCCCCn1ccnc1 [6-Chloro-2-[5-(1 --H--imidazol-1-yl)pentyl]-1 --H--benz[de]isoquinoline-1,3-(2 --H)--dione] | 94 | – | –
CCCCC[C@H](O)/C=C/[C@H]1O[C@H]2C[C@H](O2)[C@@H]1C/C=C\CCCC(=O)O [TXA2, thromboxane A2] | – | – | effect of injection into coronary arteries [2]: causes myocardial ischemia and subendocardial necrosis
Nc1ccc2c3c(cccc13)C(=O)N(CCCCn1ccnc1)C2=O [6-Amino-2-[4-(1 --H--imidazol-1-yl)butyl]-1 --H--benz[de]isoquinoline-1,3-(2 --H)--dione dihydrochloride] | 96 | 115 | –
O=C1c2cccc3cccc(c23)C(=O)N1C(CCn1ccnc1)c1ccccc1 (stereo not shown) [2-[3-(1 --H--imidazol-1-yl)-1-phenyl-propyl]-1 --H--benz[de]isoquinoline-1,3(2 -- H)--dione] | 97 | – | –
O=C1c2cccc3c(Cl)ccc(c23)C(=O)N1CCCn1ccnc1 [6-Chloro-2-[3(1 --H--imidazol-1-yl)-propyl]-1 --H--benz[de]isoquinoline-1,3(2 --H)--dione monohydrochloride] | 95 | – | –
Cc1cn(CCCN2C(=O)c3cccc4cccc(c34)C2=O)cn1 [2-[3-(4-methyl-1 --H--imidazol-1-yl)-propyl]-1 --H--benz[de]isoquinoline-1,3(2 --H)--dione] | 98 | – | –
CCCCC[C@H](O)/C=C/[C@@H]1[C@H]2C/C(=C/CCCC(=O)O)O[C@H]2C[C@H]1O [PGI2, Prostacyclin] | – | – | effects on ischemic myocardium (ischemic myocardium): beneficial effects

More lines, main results first:

inhibition at 100 µM (thromboxane synthetase) [%] | Structure (SMILES) | MABP/mm Hg (no. of rats) [1] [mm Hg] | other results
100 | CC(CCN1C(=O)c2cccc3cc([N+](=O)[O-])cc(c23)C1=O)n1ccnc1 (stereo not shown) [2-[3-(1 --H--imidazol-1-yl)butyl]-5-nitro-1 --H--benz[de]isoquinoline-1,3(2 --H)--dione] | – | –
98 | O=C1c2cccc3cc([N+](=O)[O-])cc(c23)C(=O)N1CCCCCn1ccnc1 [2-[5-(1 --H--imidazol-1-yl)pentyl)-5-nitro-1 --H--benz[de]isoquinoline-1,3(2 --H)--dione] | – | –
100 | O=C1c2cccc3cc([N+](=O)[O-])cc(c23)C(=O)N1CCCn1ccnc1 [2-[3-(1 --H--imidazol-1-yl)propyl]-5-nitro-1 --H--benz[de]isoquinoline-1,3(2 --H)--dione] | 97 | –
97 | O=C1c2cccc3cc([N+](=O)[O-])cc(c23)C(=O)N1CCCCn1ccnc1 [2-[4-(1H-Imidazol-1-yl)butyl]-5-nitro-1H-benz[de]isoquinoline-1,3(2H)-dione] | 123 | –
100 | CC(CN1C(=O)c2cccc3cc([N+](=O)[O-])cc(c23)C1=O)Cn1ccnc1 (stereo not shown) [2-[3-(1 --H--imidazol-1-yl)-2-methyl-propyl]-5-nitro-1 --H--benz[de]-isoquinoline-1,3(2 --H)--dione] | – | –
89 | O=C1c2cccc3cc([N+](=O)[O-])cc(c23)C(=O)N1CCCn1ccnc1-c1ccccc1 [5-Nitro-2-[3-(2-phenyl-1 --H--imidazol-1-yl)propyl]-1 --H-- benz[de]-isoquinoline-1,3(2 --H)--dione] | – | –
94 | O=C1c2cccc3cc([N+](=O)[O-])cc(c23)C(=O)N1CCCCc1cccnc1 [5-nitro-2-[4-(3-pyridinyl)butyl]-1 --H--benz[de]isoquinoline-1,3(2 --H)--dione] | – | –
99 | CC(CN1C(=O)c2cccc3cccc(c23)C1=O)Cn1ccnc1 (stereo not shown) [2-[3-(1 --H--imidazol-1-yl)-2-methyl-propyl]-1 --H--benz[de]isoquinoline-1,3(2 --H)--dione] | 134 | –
94 | O=C1c2cccc3cc([N+](=O)[O-])cc(c23)C(=O)N1CCc1cccnc1 [5-Nitro-2-[2-(3-pyridinyl)ethyl]-1 --H--benz[de]isoquinoline-1,3(2 --H)--dione] | – | –
94 | O=C1c2cccc3cc([N+](=O)[O-])cc(c23)C(=O)N1CCCn1cncn1 [5-Nitro-2-[3-(1 --H--1,2,4-triazol-1-yl)propyl]-1 --H--benz[de]isoquinoline-1,3(2 --H)--dione] | 127 | –
